Data as given in paper PMC9050848, “Carbamoyl-N-aryl-imine-urea: a new framework to obtain a putative leishmanicidal drug-candidate” (RSC Advances, 2020).

Assay: Plasma stability (UPLC-MS/MS recovery)
Assay type: in vitro ADME
Conditions: 37 °C, rat plasma diluted 1:1 with PBS pH 7.4, read-out: Compound recovery after incubation with rat plasma
Experimental: To investigate the potential plasma instability of the carbamoyl-N-arylimine-urea subunit, designed as a new peptide mimetic framework, compound 10e (LASSBio-1736) was selected to investigate its plasma stability,[21,22] previously to the evaluation of its in vivo leishmanicidal effect. Quantitation of 10e (LASSBio-1736), benzocaine standard (positive control; it means a substrate drug for plasma hydrolysis) and ketoconazole (internal standard) was determined by UPLC-MS/MS, after incubation of the compounds at 0, 30, 60, 120 and 240 min with rat plasma, and measuring the peak areas in three different experiments.
For analysis of plasma stability, 5 μL (250 ng mL^−1) of a concentrated solution of 10e (LASSBio-1736) or the positive control benzocaine (stock concentration = 10 000 ng mL^−1 solubilized in DMSO) was added in 195 μL of rat plasma solution (1 : 1) diluted with PBS (pH 7.4). […] The supernatant (400 μL) were placed in 2 mL vials, and analyzed by UPLC-MS/MS. […]
Detection in single reaction monitoring (SRM) mode was used for determination of the LASSBio-1736 (10e) m/z 419.1 → 205.0, benzocaine m/z 166.1 → 137.9 and ketoconazole (IS) 532.1 → 490.3, with a tolerance of mass deviation of 6 ppm, operating in positive ionization mode. The data were acquired using TraceFinder 3.2. software (Thermo Fisher Scientific, Waltham, USA), and analyzed using GraphPad Prism 5 program.

## CCOC(=O)c1ccc(N)cc1 [benzocaine, reference compound]
  recovery at 4 h, 250 ng/mL: 38%
